Reference: ChEMBL document CHEMBL4649992, “Discovery of I-BRD9, a Selective Cell Active Chemical Probe for Bromodomain Containing Protein 9 Inhibition” (J Med Chem, 2016)

Key:
[1] = biological target: Bromodomain adjacent to zinc finger domain protein 2B (Homo sapiens) (UniProt Q9UIF8); settings: Compound concentration 10.0 uM, Protein concentration 2.0 uM
[2] = biological target: Bromodomain-containing protein 4 (Homo sapiens) (UniProt O60885); settings: Compound concentration 10.0 uM, Protein concentration 2.0 uM
[3] = biological target: Histone-lysine N-methyltransferase ASH1L (Homo sapiens) (UniProt Q9NR48); settings: Compound concentration 10.0 uM, Protein concentration 2.0 uM
[4] = biological target: Chromatin remodeling regulator CECR2 (Homo sapiens) (UniProt Q9BXF3); settings: Protein concentration 19.0 uM
Sequence of Chromatin remodeling regulator CECR2 (Homo sapiens) (Q9BXF3 whole entry, looked up): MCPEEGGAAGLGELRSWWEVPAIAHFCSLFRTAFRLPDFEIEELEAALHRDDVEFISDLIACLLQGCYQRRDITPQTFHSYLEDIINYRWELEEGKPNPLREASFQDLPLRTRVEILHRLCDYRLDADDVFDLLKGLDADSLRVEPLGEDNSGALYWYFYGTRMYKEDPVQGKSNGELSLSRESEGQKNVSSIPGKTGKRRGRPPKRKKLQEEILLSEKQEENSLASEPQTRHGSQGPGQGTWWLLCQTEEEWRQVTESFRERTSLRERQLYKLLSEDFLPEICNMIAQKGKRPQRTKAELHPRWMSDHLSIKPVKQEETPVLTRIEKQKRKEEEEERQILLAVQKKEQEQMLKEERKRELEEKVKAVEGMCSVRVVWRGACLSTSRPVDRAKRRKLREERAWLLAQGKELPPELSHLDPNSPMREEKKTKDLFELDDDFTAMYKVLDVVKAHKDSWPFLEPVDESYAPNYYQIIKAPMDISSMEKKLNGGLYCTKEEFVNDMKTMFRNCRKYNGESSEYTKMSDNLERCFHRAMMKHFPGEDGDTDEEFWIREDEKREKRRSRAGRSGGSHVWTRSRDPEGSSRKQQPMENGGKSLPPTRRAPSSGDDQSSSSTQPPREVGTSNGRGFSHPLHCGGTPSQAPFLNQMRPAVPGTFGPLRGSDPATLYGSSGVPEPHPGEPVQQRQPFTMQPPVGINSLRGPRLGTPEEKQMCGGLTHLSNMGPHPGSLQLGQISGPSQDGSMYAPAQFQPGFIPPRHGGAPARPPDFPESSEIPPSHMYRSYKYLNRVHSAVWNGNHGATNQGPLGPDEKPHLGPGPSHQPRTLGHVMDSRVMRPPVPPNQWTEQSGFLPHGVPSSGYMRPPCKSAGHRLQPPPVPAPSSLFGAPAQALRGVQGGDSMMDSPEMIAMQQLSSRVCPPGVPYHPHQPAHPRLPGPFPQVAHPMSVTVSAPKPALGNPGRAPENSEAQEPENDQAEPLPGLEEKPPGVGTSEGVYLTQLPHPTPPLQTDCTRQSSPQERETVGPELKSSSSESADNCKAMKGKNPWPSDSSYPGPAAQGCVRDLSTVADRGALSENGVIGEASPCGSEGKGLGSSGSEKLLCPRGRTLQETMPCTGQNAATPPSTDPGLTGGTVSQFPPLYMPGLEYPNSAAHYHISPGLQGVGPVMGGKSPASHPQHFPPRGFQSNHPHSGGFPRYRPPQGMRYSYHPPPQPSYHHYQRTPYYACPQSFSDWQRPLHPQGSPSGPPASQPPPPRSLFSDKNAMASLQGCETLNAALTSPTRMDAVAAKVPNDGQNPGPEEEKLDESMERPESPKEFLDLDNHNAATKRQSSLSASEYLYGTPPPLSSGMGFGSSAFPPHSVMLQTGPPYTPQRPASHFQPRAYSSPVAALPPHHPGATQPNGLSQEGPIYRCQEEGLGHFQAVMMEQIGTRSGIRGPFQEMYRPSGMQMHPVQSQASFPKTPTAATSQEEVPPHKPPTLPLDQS

[5] = biological target: Transcription initiation factor TFIID subunit 1 (Homo sapiens) (UniProt P21675); settings: Compound concentration 10.0 uM, Protein concentration 2.0 uM
[6] = biological target: Protein polybromo-1 (Homo sapiens) (UniProt Q86U86); settings: Compound concentration 10.0 uM, Protein concentration 2.0 uM
Sequence of Protein polybromo-1 (Homo sapiens) (Q86U86 whole entry): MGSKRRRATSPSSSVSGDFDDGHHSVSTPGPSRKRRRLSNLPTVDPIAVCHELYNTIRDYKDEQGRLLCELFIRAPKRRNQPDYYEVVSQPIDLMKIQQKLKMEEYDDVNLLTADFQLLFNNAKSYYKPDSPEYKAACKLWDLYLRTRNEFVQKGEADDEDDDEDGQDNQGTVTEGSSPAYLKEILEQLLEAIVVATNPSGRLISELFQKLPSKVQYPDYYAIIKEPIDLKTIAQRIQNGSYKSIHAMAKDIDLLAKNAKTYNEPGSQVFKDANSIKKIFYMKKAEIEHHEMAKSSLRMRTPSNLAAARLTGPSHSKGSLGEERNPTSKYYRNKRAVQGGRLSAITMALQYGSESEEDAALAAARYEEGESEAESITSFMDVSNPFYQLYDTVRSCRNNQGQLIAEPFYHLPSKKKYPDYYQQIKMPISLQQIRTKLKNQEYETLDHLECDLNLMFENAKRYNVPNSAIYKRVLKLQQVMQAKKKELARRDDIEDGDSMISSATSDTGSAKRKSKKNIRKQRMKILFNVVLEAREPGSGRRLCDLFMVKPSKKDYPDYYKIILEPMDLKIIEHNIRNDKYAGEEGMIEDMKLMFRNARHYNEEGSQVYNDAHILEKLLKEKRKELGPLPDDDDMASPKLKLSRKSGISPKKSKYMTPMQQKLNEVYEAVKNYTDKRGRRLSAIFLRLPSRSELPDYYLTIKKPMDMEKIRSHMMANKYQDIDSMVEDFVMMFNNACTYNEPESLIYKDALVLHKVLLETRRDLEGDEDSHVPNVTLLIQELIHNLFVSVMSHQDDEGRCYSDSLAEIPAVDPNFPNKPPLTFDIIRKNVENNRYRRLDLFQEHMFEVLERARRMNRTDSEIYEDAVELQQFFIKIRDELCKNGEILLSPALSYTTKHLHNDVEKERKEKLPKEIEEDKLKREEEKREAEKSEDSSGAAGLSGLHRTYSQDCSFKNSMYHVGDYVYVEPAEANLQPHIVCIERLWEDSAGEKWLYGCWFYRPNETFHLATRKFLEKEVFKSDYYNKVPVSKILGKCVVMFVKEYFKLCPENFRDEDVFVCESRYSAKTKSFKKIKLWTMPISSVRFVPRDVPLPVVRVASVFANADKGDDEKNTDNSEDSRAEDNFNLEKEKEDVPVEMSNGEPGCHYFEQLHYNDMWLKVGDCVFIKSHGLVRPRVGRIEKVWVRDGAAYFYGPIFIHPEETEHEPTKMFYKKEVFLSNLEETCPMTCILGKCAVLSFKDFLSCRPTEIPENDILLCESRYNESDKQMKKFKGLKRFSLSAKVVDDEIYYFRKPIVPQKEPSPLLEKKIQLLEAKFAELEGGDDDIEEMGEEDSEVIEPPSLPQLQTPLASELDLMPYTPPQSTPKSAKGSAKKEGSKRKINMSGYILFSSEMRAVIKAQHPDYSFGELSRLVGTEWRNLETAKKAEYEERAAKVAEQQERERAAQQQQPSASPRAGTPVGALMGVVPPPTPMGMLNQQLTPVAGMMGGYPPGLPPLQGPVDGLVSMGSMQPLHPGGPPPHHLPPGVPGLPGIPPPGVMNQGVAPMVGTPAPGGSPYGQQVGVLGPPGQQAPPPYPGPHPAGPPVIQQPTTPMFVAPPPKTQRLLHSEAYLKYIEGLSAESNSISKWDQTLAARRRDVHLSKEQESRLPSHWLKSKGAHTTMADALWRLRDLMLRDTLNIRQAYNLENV

[7] = biological target: Bromodomain-containing protein 7 (Homo sapiens) (UniProt Q9NPI1); settings: Compound concentration 10.0 uM, Protein concentration 2.0 uM
Peregrin (Homo sapiens) [8] = biological target: T1, Peregrin (Homo sapiens) (UniProt P55201); settings: Compound concentration 10.0 uM, Protein concentration 2.0 uM
T1 sequence (whole entry): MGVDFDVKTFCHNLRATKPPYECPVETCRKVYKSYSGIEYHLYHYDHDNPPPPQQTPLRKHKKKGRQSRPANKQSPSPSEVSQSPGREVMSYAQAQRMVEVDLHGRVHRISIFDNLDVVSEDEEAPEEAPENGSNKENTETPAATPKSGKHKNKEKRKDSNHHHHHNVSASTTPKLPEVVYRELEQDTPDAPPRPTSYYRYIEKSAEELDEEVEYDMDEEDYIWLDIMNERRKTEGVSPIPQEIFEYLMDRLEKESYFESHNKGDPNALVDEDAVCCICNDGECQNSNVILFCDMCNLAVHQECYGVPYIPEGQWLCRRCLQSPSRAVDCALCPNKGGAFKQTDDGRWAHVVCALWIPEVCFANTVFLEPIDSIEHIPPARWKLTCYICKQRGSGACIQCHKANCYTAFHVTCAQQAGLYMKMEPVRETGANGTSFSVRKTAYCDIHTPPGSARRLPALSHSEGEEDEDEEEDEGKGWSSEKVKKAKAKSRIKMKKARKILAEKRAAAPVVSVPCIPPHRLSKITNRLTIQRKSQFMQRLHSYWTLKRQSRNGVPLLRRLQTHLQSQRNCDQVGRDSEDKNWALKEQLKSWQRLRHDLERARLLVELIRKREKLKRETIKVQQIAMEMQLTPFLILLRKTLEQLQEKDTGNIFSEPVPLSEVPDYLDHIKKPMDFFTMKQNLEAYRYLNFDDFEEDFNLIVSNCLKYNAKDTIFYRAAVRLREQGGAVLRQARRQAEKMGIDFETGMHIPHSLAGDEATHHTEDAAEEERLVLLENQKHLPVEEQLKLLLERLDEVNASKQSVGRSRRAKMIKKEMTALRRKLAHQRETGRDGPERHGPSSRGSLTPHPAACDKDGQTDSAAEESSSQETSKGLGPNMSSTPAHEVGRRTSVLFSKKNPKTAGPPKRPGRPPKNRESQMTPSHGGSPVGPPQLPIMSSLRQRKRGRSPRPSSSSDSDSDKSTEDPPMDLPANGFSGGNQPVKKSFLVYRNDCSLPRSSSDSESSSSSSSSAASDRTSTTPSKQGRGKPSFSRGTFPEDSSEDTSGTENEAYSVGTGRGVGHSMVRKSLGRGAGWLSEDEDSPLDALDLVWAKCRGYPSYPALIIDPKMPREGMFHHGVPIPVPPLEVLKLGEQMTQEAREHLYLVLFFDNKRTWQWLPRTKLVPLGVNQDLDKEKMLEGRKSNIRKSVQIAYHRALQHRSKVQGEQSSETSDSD

[9] = biological target: Nuclear body protein SP140-like protein (Homo sapiens) (UniProt Q9H930); settings: Compound concentration 10.0 uM, Protein concentration 2.0 uM
[10] = biological target: CREB-binding protein (Homo sapiens) (UniProt Q92793); settings: Compound concentration 10.0 uM, Protein concentration 2.0 uM
[11] = biological target: Transcription initiation factor TFIID subunit 1-like (Homo sapiens) (UniProt Q8IZX4); settings: Compound concentration 10.0 uM, Protein concentration 2.0 uM
[12] = biological target: Histone acetyltransferase p300 (Homo sapiens) (UniProt Q09472); settings: Compound concentration 10.0 uM, Protein concentration 2.0 uM
[13] = biological target: Protein polybromo-1 (Homo sapiens) (UniProt Q86U86); settings: Compound concentration 10.0 uM, Protein concentration 2.0 uM; remark: listed apart in the source
[14] = biological target: Protein polybromo-1 (Homo sapiens) (UniProt Q86U86); settings: Compound concentration 10.0 uM, Protein concentration 2.0 uM; remark: listed apart in the source
[15] = biological target: Bromodomain testis-specific protein (Homo sapiens) (UniProt Q58F21); settings: Compound concentration 10.0 uM, Protein concentration 2.0 uM
[16] = biological target: Bromodomain and WD repeat-containing protein 3 (Homo sapiens) (UniProt Q6RI45); settings: Compound concentration 10.0 uM, Protein concentration 2.0 uM
[17] = biological target: Transcription initiation factor TFIID subunit 1-like (Homo sapiens) (UniProt Q8IZX4); settings: Compound concentration 10.0 uM, Protein concentration 2.0 uM; remark: listed apart in the source
[18] = biological target: Chromatin remodeling regulator CECR2 (Homo sapiens) (UniProt Q9BXF3); settings: Compound concentration 10.0 uM, Protein concentration 2.0 uM
[19] = biological target: Protein polybromo-1 (Homo sapiens) (UniProt Q86U86); settings: Compound concentration 10.0 uM, Protein concentration 2.0 uM; remark: listed apart in the source
[20] = biological target: Protein polybromo-1 (Homo sapiens) (UniProt Q86U86); settings: Compound concentration 10.0 uM, Protein concentration 2.0 uM; remark: listed apart in the source
[21] = biological target: Histone acetyltransferase KAT2A (Homo sapiens) (UniProt Q92830); settings: Compound concentration 10.0 uM, Protein concentration 2.0 uM
[22] = biological target: Bromodomain-containing protein 2 (Homo sapiens) (UniProt P25440); settings: Compound concentration 10.0 uM, Protein concentration 2.0 uM
[23] = biological target: Bromodomain-containing protein 4 (Homo sapiens) (UniProt O60885); settings: Compound concentration 10.0 uM, Protein concentration 2.0 uM; remark: listed apart in the source
[24] = biological target: Bromodomain-containing protein 3 (Homo sapiens) (UniProt Q15059); settings: Compound concentration 10.0 uM, Protein concentration 2.0 uM
[25] = biological target: Transcription intermediary factor 1-beta (Homo sapiens) (UniProt Q13263); settings: Compound concentration 10.0 uM, Protein concentration 2.0 uM
Peregrin (Homo sapiens) [26] = biological target: T1, Peregrin (Homo sapiens); assay: Alphascreen assay. Domain start/stop: M626-G740; settings: Compound concentration 4.0 uM, Protein concentration 50.0 uM
Peregrin (Homo sapiens) [27] = biological target: T1, Peregrin (Homo sapiens); settings: Compound concentration 10.0 uM, Protein concentration 2.0 uM; remark: listed apart in the source
[28] = biological target: Bromodomain testis-specific protein (Homo sapiens) (UniProt Q58F21); settings: Compound concentration 10.0 uM, Protein concentration 2.0 uM; remark: listed apart in the source
[29] = biological target: Transcription initiation factor TFIID subunit 1 (Homo sapiens) (UniProt P21675); settings: Compound concentration 10.0 uM, Protein concentration 2.0 uM; remark: listed apart in the source
[30] = biological target: Bromodomain and PHD finger-containing protein 3 (Homo sapiens) (UniProt Q9ULD4); settings: Compound concentration 10.0 uM, Protein concentration 2.0 uM
[31] = biological target: Transcription intermediary factor 1-alpha (Homo sapiens) (UniProt O15164); settings: Compound concentration 10.0 uM, Protein concentration 2.0 uM
Sequence of Transcription intermediary factor 1-alpha (Homo sapiens) (O15164 whole entry): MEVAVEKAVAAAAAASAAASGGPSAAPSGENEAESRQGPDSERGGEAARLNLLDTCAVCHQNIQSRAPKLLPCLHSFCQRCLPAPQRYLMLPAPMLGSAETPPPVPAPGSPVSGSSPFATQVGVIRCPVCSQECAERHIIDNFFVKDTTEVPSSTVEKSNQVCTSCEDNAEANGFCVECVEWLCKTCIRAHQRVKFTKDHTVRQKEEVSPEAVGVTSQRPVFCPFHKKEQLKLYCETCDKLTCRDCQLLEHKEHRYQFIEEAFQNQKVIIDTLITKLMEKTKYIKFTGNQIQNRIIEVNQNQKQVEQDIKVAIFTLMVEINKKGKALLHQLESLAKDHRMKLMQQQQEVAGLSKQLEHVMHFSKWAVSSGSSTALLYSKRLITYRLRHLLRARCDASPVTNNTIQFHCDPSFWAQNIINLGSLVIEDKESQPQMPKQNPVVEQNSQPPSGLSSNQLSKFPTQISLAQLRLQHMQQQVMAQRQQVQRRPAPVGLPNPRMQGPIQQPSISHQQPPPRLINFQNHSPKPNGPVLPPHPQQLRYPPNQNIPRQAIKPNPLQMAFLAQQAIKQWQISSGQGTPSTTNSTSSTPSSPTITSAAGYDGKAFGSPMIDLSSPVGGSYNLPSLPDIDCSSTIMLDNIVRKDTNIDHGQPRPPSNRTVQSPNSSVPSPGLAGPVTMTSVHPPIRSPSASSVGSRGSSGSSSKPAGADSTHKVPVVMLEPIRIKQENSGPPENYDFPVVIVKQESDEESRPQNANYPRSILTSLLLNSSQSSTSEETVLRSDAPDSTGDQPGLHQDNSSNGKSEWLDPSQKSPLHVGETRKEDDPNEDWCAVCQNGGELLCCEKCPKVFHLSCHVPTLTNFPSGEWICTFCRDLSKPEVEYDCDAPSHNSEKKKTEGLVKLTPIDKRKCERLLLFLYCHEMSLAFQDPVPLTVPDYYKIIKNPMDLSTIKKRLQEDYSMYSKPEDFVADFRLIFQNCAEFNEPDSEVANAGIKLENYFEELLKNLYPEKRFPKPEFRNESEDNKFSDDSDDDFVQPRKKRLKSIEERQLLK

[32] = biological target: Bromodomain and WD repeat-containing protein 1 (Homo sapiens) (UniProt Q9NSI6); settings: Compound concentration 10.0 uM, Protein concentration 2.0 uM
[33] = biological target: Bromodomain-containing protein 9 (Homo sapiens) (UniProt Q9H8M2); settings: Compound concentration 10.0 uM, Protein concentration 2.0 uM
Sequence of Bromodomain-containing protein 9 (Homo sapiens) (Q9H8M2 whole entry): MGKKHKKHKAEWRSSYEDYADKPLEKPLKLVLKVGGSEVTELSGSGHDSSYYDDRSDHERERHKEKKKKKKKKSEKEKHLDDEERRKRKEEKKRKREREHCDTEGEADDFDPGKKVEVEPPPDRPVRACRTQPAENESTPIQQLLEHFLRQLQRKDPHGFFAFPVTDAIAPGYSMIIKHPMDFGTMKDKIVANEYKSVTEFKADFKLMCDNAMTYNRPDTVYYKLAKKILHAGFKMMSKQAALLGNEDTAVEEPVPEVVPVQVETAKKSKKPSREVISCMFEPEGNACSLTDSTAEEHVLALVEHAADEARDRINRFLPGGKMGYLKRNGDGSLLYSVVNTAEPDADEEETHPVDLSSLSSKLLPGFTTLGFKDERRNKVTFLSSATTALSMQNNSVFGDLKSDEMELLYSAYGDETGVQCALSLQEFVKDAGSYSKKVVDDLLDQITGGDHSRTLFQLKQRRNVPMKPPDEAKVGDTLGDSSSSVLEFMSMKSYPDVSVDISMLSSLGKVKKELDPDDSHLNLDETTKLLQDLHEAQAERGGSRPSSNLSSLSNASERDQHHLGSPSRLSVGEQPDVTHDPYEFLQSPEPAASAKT

[34] = biological target: Histone acetyltransferase KAT2B (Homo sapiens) (UniProt Q92831); settings: Compound concentration 10.0 uM, Protein concentration 2.0 uM
[35] = biological target: Bromodomain adjacent to zinc finger domain protein 1A (Homo sapiens) (UniProt Q9NRL2); settings: Compound concentration 10.0 uM, Protein concentration 2.0 uM
[36] = biological target: Bromodomain-containing protein 1 (Homo sapiens) (UniProt O95696); settings: Compound concentration 10.0 uM, Protein concentration 2.0 uM
[37] = biological target: Tyrosine-protein kinase BAZ1B (Homo sapiens) (UniProt Q9UIG0); settings: Compound concentration 10.0 uM, Protein concentration 2.0 uM
[38] = biological target: PH-interacting protein (Homo sapiens) (UniProt Q8WWQ0); settings: Compound concentration 10.0 uM, Protein concentration 2.0 uM
[39] = biological target: Bromodomain-containing protein 2 (Homo sapiens) (UniProt P25440); settings: Compound concentration 10.0 uM, Protein concentration 2.0 uM; remark: listed apart in the source
[40] = biological target: Bromodomain-containing protein 9 (Homo sapiens) (UniProt Q9H8M2); assay: Alphascreen assay. Domain start/stop: L14-Q143; settings: Compound concentration 0.25 uM, Protein concentration 5.0 uM
[41] = biological target: Protein polybromo-1 (Homo sapiens) (UniProt Q86U86); settings: Compound concentration 10.0 uM, Protein concentration 2.0 uM; remark: listed apart in the source
[42] = biological target: Nuclear body protein SP140 (Homo sapiens) (UniProt Q13342); settings: Compound concentration 10.0 uM, Protein concentration 2.0 uM
[43] = biological target: Nucleosome-remodeling factor subunit BPTF (Homo sapiens) (UniProt Q12830)
Description: Alphascreen assay. Domain start/stop: S2791-H2911

[44] = biological target: SWI/SNF-related matrix-associated actin-dependent regulator of chromatin subfamily A member 4 (Homo sapiens) (UniProt P51532); settings: Compound concentration 10.0 uM, Protein concentration 2.0 uM
[45] = biological target: Bromodomain adjacent to zinc finger domain protein 2A (Homo sapiens) (UniProt Q9UIF9); settings: Compound concentration 10.0 uM, Protein concentration 2.0 uM
[46] = biological target: Nucleosome-remodeling factor subunit BPTF (Homo sapiens) (UniProt Q12830); settings: Compound concentration 10.0 uM, Protein concentration 2.0 uM
[47] = biological target: ATPase family AAA domain-containing protein 2B (Homo sapiens) (UniProt Q9ULI0); settings: Compound concentration 10.0 uM, Protein concentration 2.0 uM
[48] = biological target: SWI/SNF-related matrix-associated actin-dependent regulator of chromatin subfamily A member 2 (Homo sapiens) (UniProt P51531); settings: Compound concentration 10.0 uM, Protein concentration 2.0 uM
[49] = biological target: ATPase family AAA domain-containing protein 2 (Homo sapiens) (UniProt Q6PL18); settings: Compound concentration 10.0 uM, Protein concentration 2.0 uM
[50] = biological target: Histone-lysine N-methyltransferase 2A (Homo sapiens) (UniProt Q03164); settings: Compound concentration 10.0 uM, Protein concentration 2.0 uM
[51] = biological target: Transcription intermediary factor 1-alpha (Homo sapiens) (UniProt O15164); settings: Compound concentration 10.0 uM, Protein concentration 2.0 uM; remark: listed apart in the source
[52] = biological target: Bromodomain-containing protein 3 (Homo sapiens) (UniProt Q15059); settings: Compound concentration 10.0 uM, Protein concentration 2.0 uM; remark: listed apart in the source

Structure (SMILES): CCn1cc(-c2cccc(C(F)(F)F)c2)c2sc(C(=N)NC3CCS(=O)(=O)CC3)cc2c1=O
- ΔTm [1]: 0.84 °C
- ΔTm [2]: 3.6 °C
- ΔTm [3]: 1.17 °C
- inhibition ([4]; Compound concentration 0.25 uM): 4.99%
- inhibition ([4]; Compound concentration 4.0 uM): 99.5%
- ΔTm [5]: 0.5 °C
- ΔTm [6]: 0.69 °C
- ΔTm [7]: 11.1 °C
- ΔTm (Peregrin (Homo sapiens) [8]): 1.32 °C
- ΔTm [9]: 3 °C
- ΔTm [10]: 5.94 °C
- ΔTm [11]: 0.9 °C
- ΔTm [12]: 6.07 °C
- ΔTm [13]: 0.54 °C
- ΔTm [14]: 0.36 °C
- ΔTm [15]: 1.37 °C
- ΔTm [16]: 2.31 °C
- ΔTm [17]: 0.59 °C
- ΔTm [18]: 9.43 °C
- ΔTm [19]: 0.36 °C
- ΔTm [20]: 0.63 °C
- ΔTm [21]: 1.26 °C
- ΔTm [22]: 2.54 °C
- ΔTm [23]: 1.92 °C
- ΔTm [24]: 2.77 °C
- ΔTm [25]: 0.66 °C
- inhibition (Peregrin (Homo sapiens) [26]): 18.8%
- ΔTm (Peregrin (Homo sapiens) [27]): 2.66 °C
- ΔTm [28]: 1.74 °C
- ΔTm [29]: 0.49 °C
- ΔTm [30]: 1.17 °C
- ΔTm [31]: 1.09 °C
- ΔTm [32]: 0.71 °C
- ΔTm [33]: 14.4 °C
- ΔTm [34]: 0.36 °C
- ΔTm [35]: 0.42 °C
- ΔTm [36]: 0.98 °C
- ΔTm [37]: 0.68 °C
- ΔTm [38]: 0.95 °C
- ΔTm [39]: 1.39 °C
- inhibition [40]: 94.3%
- ΔTm [41]: 0.74 °C
- ΔTm [42]: 1.36 °C
- inhibition ([43]; Compound concentration 0.25 uM, Protein concentration 20.0 uM): -2.87%
- inhibition ([43]; Compound concentration 4.0 uM, Protein concentration 19.0 uM): -1.93%
- ΔTm [44]: 0.68 °C
- ΔTm [45]: 0.67 °C
- ΔTm [46]: 0.58 °C
- ΔTm [47]: 0.97 °C
- ΔTm [48]: 0.72 °C
- ΔTm [49]: 0.99 °C
- ΔTm [50]: 0.44 °C
- ΔTm [51]: 1.86 °C
- ΔTm [52]: 1.79 °C
